# Laboratory results as given in patent US7732178B2, “Laccase enzymes and their uses” (AB Enzymes Oy, priority 2004, dated 2010).
# Values joined by “and” are separate entries in the source; they are usually repeats but may differ in a detail not shown here. Equal entries are not always repeated. Where two headings read alike, the source gives them in different places.
# T1: Melanocarpus albomyces laccase (MaL) (Melanocarpus albomyces, UniProt Q70KY3)
# T1 sequence (Q70KY3 51-609): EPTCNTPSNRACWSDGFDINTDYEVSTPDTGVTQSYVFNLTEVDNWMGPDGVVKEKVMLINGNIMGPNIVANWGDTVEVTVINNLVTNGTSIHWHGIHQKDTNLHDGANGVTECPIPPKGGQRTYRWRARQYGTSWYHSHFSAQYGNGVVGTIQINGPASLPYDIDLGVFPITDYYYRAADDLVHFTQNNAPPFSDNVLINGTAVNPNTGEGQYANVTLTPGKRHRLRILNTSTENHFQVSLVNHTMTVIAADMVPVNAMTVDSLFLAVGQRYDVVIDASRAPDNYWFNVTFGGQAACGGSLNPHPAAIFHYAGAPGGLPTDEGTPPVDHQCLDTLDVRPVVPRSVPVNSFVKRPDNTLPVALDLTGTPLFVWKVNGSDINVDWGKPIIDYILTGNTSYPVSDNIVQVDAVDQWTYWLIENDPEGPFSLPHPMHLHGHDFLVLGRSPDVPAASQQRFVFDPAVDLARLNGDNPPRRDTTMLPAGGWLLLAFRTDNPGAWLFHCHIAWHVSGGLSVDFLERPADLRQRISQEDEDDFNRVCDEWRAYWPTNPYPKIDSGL
# Assays:
# [1] = tested on: wild type Chaetomium (CtL) laccase; assay type: biochemical, Chaetomium thermophilum; conditions: pH 5
# [2] = tested on: wild type Thielavia (TaLcc) laccase; assay type: biochemical, Thielavia arenaria; conditions: pH 5
# [3] = tested on: CtLcc1; assay type: biochemical, Chaetomium thermophilum
# Procedure: (§1) The inhibition effect of different compounds on the activity of the laccases was determined as described in Example 2. except with Talcc4, with which the inhibition was analyzed using spectroscopic activity assay.
# [4] = tested on: TaLcc1; assay type: biochemical, Thielavia arenaria
# Procedure: as §1
# [5] = tested on: TaLcc2; assay type: biochemical, Thielavia arenaria
# Procedure: as §1
# [6] = tested on: Chaetomium thermophilum ALKO4265 laccase, purified wild type (CtL; CtLcc1); assay type: biochemical; conditions: pH 5
# [7] = tested on: TaLcc4; assay type: biochemical, Thielavia arenaria; conditions: inhibitor 0.5 mM; spectrofotometric ABTS assay
# [8] = molecular target: T2, Thielavia arenaria ALKO4197 laccase TaLcc2, recombinant, SEQ ID NO: 41 (Canariomyces notabilis, UniProt A0AAN6TC87); assay type: biochemical
# T2 construct: plasmid pALK1347 (DSM 15486)
# T2 sequence (A0AAN6TC87 entry or part of it): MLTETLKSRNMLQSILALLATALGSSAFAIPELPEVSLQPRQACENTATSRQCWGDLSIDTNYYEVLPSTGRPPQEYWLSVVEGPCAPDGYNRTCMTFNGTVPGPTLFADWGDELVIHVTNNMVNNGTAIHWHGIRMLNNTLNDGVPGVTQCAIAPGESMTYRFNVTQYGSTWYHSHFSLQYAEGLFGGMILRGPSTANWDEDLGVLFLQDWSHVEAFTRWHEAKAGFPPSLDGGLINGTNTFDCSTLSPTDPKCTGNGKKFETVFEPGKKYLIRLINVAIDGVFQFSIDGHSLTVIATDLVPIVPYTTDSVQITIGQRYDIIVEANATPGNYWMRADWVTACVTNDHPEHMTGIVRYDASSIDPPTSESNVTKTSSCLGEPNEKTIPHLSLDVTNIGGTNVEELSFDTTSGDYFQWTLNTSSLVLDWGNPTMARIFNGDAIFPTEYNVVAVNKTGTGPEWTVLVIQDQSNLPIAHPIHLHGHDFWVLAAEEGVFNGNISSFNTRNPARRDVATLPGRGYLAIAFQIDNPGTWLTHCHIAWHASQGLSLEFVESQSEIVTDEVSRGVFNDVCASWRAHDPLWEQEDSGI
# Procedure: as §1
# [9] = tested on: Thielavia arenaria ALKO4197 laccase TaLcc4, recombinant, SEQ ID NO: 45; assay type: biochemical
# Procedure: as §1
# [10] = molecular target: T3, Chaetomium thermophilum ALKO4265 laccase CtLcc1, recombinant, SEQ ID NO: 47 (Thermochaetoides thermophila, UniProt G0S3A5); assay type: biochemical
# T3 construct: plasmid pALK1304 (DSM 15075)
# T3 sequence (G0S3A5 entry or part of it): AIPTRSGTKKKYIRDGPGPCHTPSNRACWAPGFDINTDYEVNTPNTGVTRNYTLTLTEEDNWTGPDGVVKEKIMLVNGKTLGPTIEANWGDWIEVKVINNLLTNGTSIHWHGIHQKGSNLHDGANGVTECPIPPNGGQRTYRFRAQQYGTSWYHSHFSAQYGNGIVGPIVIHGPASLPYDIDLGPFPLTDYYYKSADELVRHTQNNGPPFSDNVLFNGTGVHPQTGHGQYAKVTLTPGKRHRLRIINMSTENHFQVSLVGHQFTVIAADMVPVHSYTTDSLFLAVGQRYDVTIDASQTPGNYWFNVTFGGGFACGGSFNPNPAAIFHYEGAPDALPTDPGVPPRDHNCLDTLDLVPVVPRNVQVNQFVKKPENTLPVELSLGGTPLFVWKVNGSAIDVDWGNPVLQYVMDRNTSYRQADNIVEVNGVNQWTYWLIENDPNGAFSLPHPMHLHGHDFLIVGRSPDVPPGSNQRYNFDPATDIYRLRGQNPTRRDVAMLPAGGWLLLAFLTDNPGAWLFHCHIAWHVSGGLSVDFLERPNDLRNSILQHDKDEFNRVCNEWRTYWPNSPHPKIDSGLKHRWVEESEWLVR
# Procedure: as §1
# [11] = molecular target: T4, Thielavia arenaria ALKO4197 laccase TaLcc1, recombinant, SEQ ID NO: 39 (Canariomyces arenarius, UniProt F6N9E7); test: biochemical
# T4 construct: plasmid pALK1342 (DSM 15484)
# Procedure: as §1
# [12] = molecular target: Thielavia arenaria ALKO4197 laccase, purified wild type (TaLcc; TaLcc1) (Canariomyces arenarius, UniProt F6N9E7); test: biochemical; conditions: pH 5
# [13] = molecular target: T4, Thielavia arenaria ALKO4197 laccase TaLcc1, recombinant, SEQ ID NO: 39; assay type: biochemical
# Procedure: (§2) On syringaldazin and DMP 40 mM MES buffer, pH 6 was used. All activity assays were carried out at 25° C. Kinetic parameters were estimated by a nonlinear regression curve fit. The values were compared to those of Melanocarpus albomyces MaL, laccase.
# [14] = molecular target: T1, Melanocarpus albomyces laccase (MaL); test: Kinetic parameters of MaL; assay type: biochemical
# Procedure: as §2
# [15] = tested on: Thielavia arenaria ALKO4197 laccase TaLcc4, recombinant, SEQ ID NO: 45; test: Kinetic parameters of TaLcc4; assay type: biochemical
# Procedure: as §2
# [16] = tested on: Thielavia arenaria ALKO4197 laccase TaLcc3, recombinant, SEQ ID NO: 43; test: Kinetic parameters of TaLcc3; assay type: biochemical
# Procedure: as §2
# [17] = Isoelectric focusing (pI); assay type: physicochemical; conditions: pH range 3-9
# Procedure: Molecular weight of the T. arenaria and C. thermophilum laccases were determined on SDS-PAGE according to Laemmli (1970) The gels used in the SDS-PAGE analysis were ready-made 12% Tris HCl gels (BioRad). Protein bands were visualized by staining with Coomassie Brilliant Blue (R 350; Pharmacia) and compared with molecular weight markers (Prestained Protein Marker Broad Range #7708S; New England BioLabs, Beverly, Mass.). The molecular weight of the both laccases was approximately 80 kDa. The isoelectric point of the laccases was determined with isoelectric focusing within the pH range of 3-9 (Pharmalyte IEF, Pharmacia) on a LKB 2117 Multiphor II Electrophoresis System (LKB Pharmacia, Bromma, Sweden) according to the manufacturer's instructions.
# (§3) The purified recombinant Thielavia and Chaetomium laccases were characterized in terms of pH optimum, thermal stability, and pI as described in Example 2. The molecular weight was determined by MALDI-TOF mass spectrometry on a Ultraflex™ time-of-flight instrument (BrukerDaltonics, Germany) as previously described (Palonen et al., 2003). The redox-potentials of the T1 coppers of for CtLcc, and TaLcc2 laccases were determined by photometric copper titration in 0.1 M KH2PO4 (pH 6.0) as described by Xu et al. (1996) using the redox titrant couple K3Fe(CN)6/K4Fe(CN)6. The redox potential of TaLcc1 was determined with a combined Pt—AgCl/KCl microelectrode at pH 5.0 according to Sigoillot et al (2004). The characterization results are collected to Table 14.
# [18] = Specific activity towards syringaldazine; assay type: biochemical; conditions: 25 mM MES buffer, pH 5.5
# Procedure: (§4) Specific activities of the purified T. arenaria and C. thermophilum laccases were determined towards different laccase substrates.
# [19] = Specific activity towards guaiacol; assay type: biochemical; conditions: 25 mM MES buffer, pH 5.5
# Procedure: as §4
# [20] = Specific activity towards di-methoxy-phenol (DMP); assay type: biochemical; conditions: 25 mM MES buffer, pH 5.5
# Procedure: as §4
# [21] = Redox potential, combined Pt-AgCl/KCl microelectrode; assay type: physicochemical; conditions: combined Pt-AgCl/KCl microelectrode at pH 5.0
# Procedure: as §3
# [22] = Stain removal, grass soiling; parameters: key to Grass L* / Grass a* / Grass b*: CIE L*a*b* color coordinates from reflectance; conditions: 60 min, 40° C., pH 6; enzyme 20 nkat/g + mediator 2 mg/g (Mediator only: 0 nkat/g)
# Procedure: (§5) Laccases CtLcc1, TaLcc2, TaLcc4 and Denilite II Base (Example 7) were tested for their ability to remove stains. The following artificially soiled test cloths were used: grass soiling (Art.164, EMPA Testmaterialen, Germany), tea soiling (Art. 167, EMPA Testmaterialen, Germany). The fabric was cut in 5.8×5.8 cm swatches. Laccase treatments were performed in LP-2 Launder Ometer as follows. About 5 g of soiled fabrics were loaded into 1.2 liter containers containing 150 ml Mc Ilvaine's citrate phosphate buffer pH 6 and the containers were temperated. Enzyme with or without the mediator (methyl syringate, DeniLite II Assist, Novozymes) was added as laccase activity units (Example 7). Enzyme was dosed 200 nkat/g and the mediator 10 mg/g on the weight of fabric, except at 40° C. dosages of 20 nkat/g and 2 mg/g were also used. The Launder Ometer was run at 40, 50 or 60° C. and pH 6 for 60 min. After that the swatches were carefully rinsed under running water and in shake flasks containing warm water and dried in the air.
# (§6) The stain removal effect was evaluated by measuring the colour as reflectance values using L*a*b* color space coordinates (Example 7). The colour of the swatches was measured before and after the laccase treatment.
# [23] = Specific activity towards ABTS; assay type: biochemical; conditions: 25 mM succinate buffer pH 4.5, 25° C.
# Procedure: The activity assay was carried out in accordance with the method developed by Niku-Paavola et al. (1988). The sample was diluted with 0.025 M succinate buffer, pH 4.5. […] The activity is expressed as nano katals.
# as §4
# [24] = Stain removal, tea soiling; parameters: key to Tea L* / Tea a* / Tea b*: CIE L*a*b* color coordinates from reflectance; conditions: 60 min, 40° C., pH 6; enzyme 20 nkat/g + mediator 2 mg/g (Mediator only: 0 nkat/g)
# Procedure: as §5, §6
# [25] = 25 mM succinate buffer pH 4.5, 25° C.
molecule,measurement,setting,value
[Cl-].[Na+] [NaCl],Inhibition (%) CtL,[1],0% and 10%
same,Inhibition (%) TaLcc,[2],35% and 42%
same,Inhibition (%) CtLcc1,[3],0% and 10%
same,Inhibition (%) TaLcc1,[4],0%
same,Inhibition (%) TaLcc2,[5],20% and 30%
[N-]=[N+]=[N-].[Na+] [NaN3],Inhibition (%),[6],100%
same,Inhibition (%) TaLcc4,[7],95%
same,Inhibition (%) CtL,[1],100%
same,Inhibition (%) CtLcc1,[3]; inhibitor 0.5 mM,100%
same,Inhibition (%),[8],95%
same,Inhibition (%),[9],95%
same,Inhibition (%),[10],100%
same,Inhibition (%) TaLcc1,[4]; inhibitor 0.5 mM,95%
same,Inhibition (%) TaLcc2,[5]; inhibitor 0.5 mM,95%
O=C(O)CN(CCN(CC(=O)O)CC(=O)O)CC(=O)O [EDTA],Inhibition (%),[6],0%
same,inhibition at 10000 µM,[11],5%
same,Inhibition (%),[9],2%
same,inhibition at 10000 µM,[12],0%
"COc1cc(C=NN=Cc2cc(OC)c(O)c(OC)c2)cc(OC)c1O [Syringaldazin, syringaldazin]",Km,"[13]; 40 mM MES buffer, pH 6, 25° C.",4.3 µM
same,kcat,"[13]; 40 mM MES buffer, pH 6, 25° C.",32.33 s⁻¹
same,kcat,"[14]; 40 mM MES buffer, pH 6, 25° C.",78.5 s⁻¹
same,Km,"[15]; 40 mM MES buffer, pH 6, 25° C.",115 µM
same,kcat,"[15]; 40 mM MES buffer, pH 6, 25° C.",15.5 s⁻¹
same,Km,"[16]; 40 mM MES buffer, pH 6, 25° C.",4.3 µM
same,kcat,"[16]; 40 mM MES buffer, pH 6, 25° C.",0.2 s⁻¹
"CCn1c(=NN=c2sc3cc(S(=O)(=O)O)ccc3n2CC)sc2cc(S(=O)(=O)O)ccc21 [ABTS, 2,2′azinobis-3-ethylbenzthiazole-6-sulphonate]",Km,[13]; pH 4.5,75 µM
same,kcat,[13]; pH 4.5,68.83 s⁻¹
same,kcat,[14]; pH 4.5,78.17 s⁻¹
same,Km,[15]; [25],2470 µM
same,kcat,[15]; [25],143.5 s⁻¹
same,Km,[16]; [25],1040 µM
same,kcat,[16]; [25],0.617 s⁻¹
"COc1cccc(OC)c1O [DMP, 2,6-dimethoxy phenol]",Km,"[13]; 40 mM MES buffer, pH 6, 25° C.",17 µM
same,kcat,"[13]; 40 mM MES buffer, pH 6, 25° C.",67.17 s⁻¹
same,kcat,"[14]; 40 mM MES buffer, pH 6, 25° C.",69.33 s⁻¹
same,Km,"[15]; 40 mM MES buffer, pH 6, 25° C.",1900 µM
same,kcat,"[15]; 40 mM MES buffer, pH 6, 25° C.",26.5 s⁻¹
same,Km,"[16]; 40 mM MES buffer, pH 6, 25° C.",14 µM
same,kcat,"[16]; 40 mM MES buffer, pH 6, 25° C.",0.083 s⁻¹
"TaLcc1: Thielavia arenaria ALKO 4197 laccase, SEQ ID NO: 39, produced in Trichoderma reesei (protein, Thielavia arenaria ALKO4197; (1)..(617) Deduced amino acid sequence of Thielavia arenaria ALKO4197 TaLcc1) MKSWAAAVALMVGILSPHAAAAPPANPVQRDMLQVLEARQSGPTCNTPSNRACWTNGFDINTDYEVSTPNTGRTVAYQLTLTEKENWIGPDGVLKNVVMLVNDKIIGPTIRANWGDNIEVTVINNLKTNGTSMHWHGLRQLGNVFNDGANGVTECPIPPKGGRKTYKFRATQYGTSWYHSHFSAQYGNGVVGTIQIDGPASLPYDIDLGVFPLMDYYYRSADELVHFTQSNGAPPSDNVLFNGTARHPETGAGQWYNVTLTPGKRHRLRIINTSTDNHFQVSLVGHNMTVIATDMVPVNAFTVSSLFLAVGQRYDVTIDANSPVGNYWFNVTFGDGLCGSSNNKFPAAIFRYQGAPATLPTDQGLPVPNHMCLDNLNLTPVVTRSAPVNNFVKRPSNTLGVTLDIGGTPLFVWKVNGSAINVDWGKPILDYVMSGNTSYPVSDNIVQVDAVDQWTYWLIENDPTNPIVSLPHPMHLHGHDFLVLGRSPDELPSAGVRHIFDPAKDLPRLKGNNPVRRDVTMLPAGGWLLLAFKTDNPGAWLFHCHIAWHVSGGLSVDFLERPNDLRTQLNSNAKRADRDDFNRVCREWNAYWPTNPFPKIDSGLRHRFVEESEWMVR",pI,[17],5.5-6.9
same,Specific activity on syringaldazin,[18],340 nkat/mg
same,Specific activity on guaiacol,[19],61 nkat/mg
same,Specific activity on DMP,[20],285 nkat/mg
same,E^0,[21],560 mV
same,Grass L*,[22],80.16
same,Grass a*,[22],−0.73
same,Grass b*,[22],16.20
same,Specific activity on ABTS,[23],910 nkat/mg
same,Tea L*,[24],77.17
same,Tea a*,[24],4.65
same,Tea b*,[24],24.40
